According to PubChem BioAssay AID2060502 (Molecular Pharmacology Branch, DTP, NCI, 2025):

Test system: 885724-159-R-J1-PDC complex spheroid viability
Experiment: Anticancer human tumor 885724-159-R-J1-PDC patient-derived pancreatic adenocarcinoma cell line growth inhibition [GQUAD]
Conditions: for IC50: curve of first compound; for viability, T/C: stronger effect = lower value
How it was run: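 Viability of tumor cells grown as complex spheroids with endothelial and stromal cells, exposed to drug combinations. Top concentration at or near clinical Cmax (else 10 microM), diluted in half-log increments.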
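Also: spheroids exposed to agents for seven days before readout.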
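For viability, T/C in this document: percent of vehicle control viability where 100% = DMSO wells.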

SMILES: COc1ncnc(C2CC2)c1-c1ncc2cnn(Cc3ccc(-c4nc(C(F)(F)F)cn4C(C)C)cc3)c2n1 + Cc1cnc(CNC(=O)c2c(=O)c3ccc(N4CCCN(C)CC4)nc3n3c2sc2ccccc23)cn1
- IC50 (second compound 0.0316 µM): > 10 µM
- IC50 (second compound 0.1 µM): > 10 µM
- IC50 (second compound 0.316 µM): > 10 µM
- IC50 (second compound 1 µM): > 10 µM
- IC50 (second compound 3.16 µM): > 10 µM
- IC50 (second compound 10 µM): > 10 µM
- viability, T/C (second compound 0.0316 µM, first compound 0.0316 µM): 113%
- viability, T/C (second compound 0.0316 µM, first compound 0.1 µM): 106%
- viability, T/C (second compound 0.0316 µM, first compound 0.316 µM): 103%
- viability, T/C (second compound 0.0316 µM, first compound 1 µM): 114%
- viability, T/C (second compound 0.0316 µM, first compound 3.16 µM): 115%
- viability, T/C (second compound 0.0316 µM, first compound 10 µM): 118%
- viability, T/C (second compound 0.1 µM, first compound 0.0316 µM): 117%
- viability, T/C (second compound 0.1 µM, first compound 0.1 µM): 114%
- viability, T/C (second compound 0.1 µM, first compound 0.316 µM): 111%
- viability, T/C (second compound 0.1 µM, first compound 1 µM): 103%
- viability, T/C (second compound 0.1 µM, first compound 3.16 µM): 112%
- viability, T/C (second compound 0.1 µM, first compound 10 µM): 109%
- viability, T/C (second compound 0.316 µM, first compound 0.0316 µM): 97.5%
- viability, T/C (second compound 0.316 µM, first compound 0.1 µM): 97.4%
- viability, T/C (second compound 0.316 µM, first compound 0.316 µM): 92.4%
- viability, T/C (second compound 0.316 µM, first compound 1 µM): 98.5%
- viability, T/C (second compound 0.316 µM, first compound 3.16 µM): 110%
- viability, T/C (second compound 0.316 µM, first compound 10 µM): 106%
- viability, T/C (second compound 1 µM, first compound 0.0316 µM): 95.1%
- viability, T/C (second compound 1 µM, first compound 0.1 µM): 90.8%
- viability, T/C (second compound 1 µM, first compound 0.316 µM): 93.6%
- viability, T/C (second compound 1 µM, first compound 1 µM): 87.5%
- viability, T/C (second compound 1 µM, first compound 3.16 µM): 99.3%
- viability, T/C (second compound 1 µM, first compound 10 µM): 87.3%
- viability, T/C (second compound 3.16 µM, first compound 0.0316 µM): 76.4%
- viability, T/C (second compound 3.16 µM, first compound 0.1 µM): 73.6%
- viability, T/C (second compound 3.16 µM, first compound 0.316 µM): 73.2%
- viability, T/C (second compound 3.16 µM, first compound 1 µM): 72.7%
- viability, T/C (second compound 3.16 µM, first compound 3.16 µM): 82.5%
- viability, T/C (second compound 3.16 µM, first compound 10 µM): 79.5%
- viability, T/C (second compound 10 µM, first compound 0.0316 µM): 69.5%
- viability, T/C (second compound 10 µM, first compound 0.1 µM): 69.5%
- viability, T/C (second compound 10 µM, first compound 0.316 µM): 61.8%
- viability, T/C (second compound 10 µM, first compound 1 µM): 66.5%
- viability, T/C (second compound 10 µM, first compound 3.16 µM): 76.7%
- viability, T/C (second compound 10 µM, first compound 10 µM): 75.8%
